Data reported in paper PMC11545984, “1,3-Dipolar Cycloaddition of Nitrile Oxides and Nitrilimines to (−)-β-Caryophyllene: Stereoselective Synthesis of Polycyclic Derivatives and Their Biological Testing” (International Journal of Molecular Sciences, 2024).
Like-named read-outs stand apart in the source and are kept apart here. Marks after values point to notes of the source that are not given here.

How the values were obtained:
MDCK cells = experiment: Cytotoxicity in MDCK cells (MTT, CC50); conditions: uninfected MDCK cells, 48 h
[1] = system: influenza virus A/Puerto Rico/8/34 (H1N1); experiment: Antiviral (cytoprotective) activity in MDCK cells, MTT; type: cell-based
HEK-293 = experiment: IC50 determination (MTT test), HEK-293; type: cell-based; conditions: Homo sapiens, HEK293, normal cells, 72 h
Description: (§1) Colon cancer (HCT116, HT29), breast cancer (MCF7, SKBR3), melanoma (SK-MEL28), lung cancer (A549), prostate cancer (DU145), human normal cells (VA-13 and HEK293), and murine mammary cell lines (EMT6) were purchased from ATCC (Manassas, VA, USA). Cells were routinely grown in RPMI 1640 culture medium, supplemented with 10% fetal bovine serum, glutamine, and 100 U/mL penicillin. HCT116, HT29, MCF7, SKBR3, SK-MEL28, A549, DU145, VA-13, HEK293, and EMT6 cells were grown in flasks in RPMI 1640 fresh culture medium with supplements at 37 °C and 5% CO2. Cells were grown as monolayer cultures, and the cells in the exponential growth phase were trypsinized and suspended in the supplemented RPMI 1640 medium.
(§2) To evaluate the cytotoxicity of the SDE-series in vitro, we placed cells in (15–30) × 10^3 cells/mL concentrations in 96-well culture plates for 24 h. Cells were counted after treatment with Trypan blue solution (0.4%). After 24 h, the cells were exposed to six tested concentrations of SDE-series (50–1.5 µM) dilutions to pre-incubated cells at 37 °C for 72 h. In control wells with untreated cells, only (DMSO + PBS) was added. Cell viability was measured by the standard MTT test. The absorbance was measured at 540 nm using a Multiskan™ FC microplate photometer and the Skanlt software 6.1 RE for microplate reader, both from Thermo Scientific (Waltham, MA, USA). In vitro experiments were carried out in triplicate. GraphPad prism version 9.0 was used to determine the IC50. The IC50 data are presented as mean (±) standard deviation (SD).

HT-29 = experiment: IC50 determination (MTT test), HT-29; type: cell-based; conditions: Homo sapiens, colon cancer, 72 h
Description: as §1, §2

[2] = system: DU145, A549, VA-13, HEK293, EMT6; experiment: Initial cytotoxicity testing (MTT test), all cell lines together; type: cell-based; conditions: for IC50: after 72 h, read-out: IC50 on all cells
Description: as §1
(§3) To evaluate the cytotoxicity of the compounds, we placed cells in (20–30) × 10^3 cells/mL concentrations in 96-well culture plates for 24 h. Cells were counted after treatment with Trypan blue solution (0.4%). They were then exposed to two different concentrations of compounds 16–30 (50–100 µM) dilutions in pre-incubated cells at 37 °C for 72 h. In control wells with untreated cells, only (DMSO + PBS) was added. Cell viability was measured by the standard MTT test. The stock solutions of each compound were prepared in DMSO following by preparation of serial dilutions in PBS.
(§4) The absorbance was measured at 540 nm using a Multiskan™ FC microplate photometer and the Skanlt software 6.1 RE for microplate reader, both from Thermo Scientific (Waltham, MA, USA). Experiments were carried out in triplicate; to perform the statistical analysis, more concentrations should be evaluated.

SK-MEL-28 = experiment: IC50 determination (MTT test), SK-MEL-28; type: cell-based, human; conditions: 72 h; for IC50: Homo sapiens, SK-MEL-28, melanoma; for IC50 SK-MEL-28: melanoma
Description: as §1, §2

A549 [3] = experiment: Initial cytotoxicity testing (MTT test), A549; type: cell-based, human; conditions: for IC50: Homo sapiens, A549, 72 h, read-out: cytotoxicity A549
Description: as §1, §3, §4

HEK293 = experiment: Initial cytotoxicity testing (MTT test), HEK293; type: cell-based, human; conditions: for IC50: Homo sapiens, HEK293, normal cells, initial testing
Description: as §1, §3, §4

DU145 [4] = experiment: Initial cytotoxicity testing (MTT test), DU145; type: cell-based, human; conditions: for IC50: Homo sapiens, DU-145, 72 h, read-out: cytotoxicity DU145
Description: as §1, §3, §4

EMT6 = experiment: Initial cytotoxicity testing (MTT test), EMT6; type: cell-based, murine; conditions: for cytotoxicity EMT6: murine mammary cell line, MTT, 72 h, two concentrations 50–100 µM
Description: as §1, §3, §4

HCT116 = experiment: IC50 determination (MTT test), HCT116; type: cell-based, human; conditions: 72 h; for IC50: Homo sapiens, HCT-116, colon cancer; for IC50 HCT116: colon cancer
Description: as §1, §2

SKBR3 = experiment: IC50 determination (MTT test), SKBR3; type: cell-based; conditions: Homo sapiens, SK-BR-3, breast cancer, 72 h
Description: as §1, §2

A549 [5] = experiment: IC50 determination (MTT test), A549; type: cell-based; conditions: Homo sapiens, lung cancer, 72 h
Description: as §1, §2

VA-13 = experiment: Initial cytotoxicity testing (MTT test), VA-13; type: cell-based, human; conditions: for IC50: Homo sapiens, VA-13, normal cells, initial testing
Description: as §1, §3, §4

in vitro = conditions: dog
MCF7 = experiment: IC50 determination (MTT test), MCF7; type: cell-based; conditions: Homo sapiens, breast cancer, 72 h
Description: as §1, §2

DU145 [6] = experiment: IC50 determination (MTT test), DU145; type: cell-based; conditions: Homo sapiens, DU-145, prostate cancer, 72 h
Description: as §1, §2

[7] = Initial cytotoxicity testing (MTT test), HEK293; type: cell-based, human; conditions: human healthy cells, MTT, 72 h, two concentrations 50–100 µM
Description: as §1, §3, §4

[8] = Initial cytotoxicity testing (MTT test), VA-13; type: cell-based, human; conditions: human healthy cells, MTT, 72 h, two concentrations 50–100 µM
Description: as §1, §3, §4

[9] = system: influenza virus A/Puerto Rico/8/34 (H1N1); experiment: Time-of-addition experiment in MDCK cells; type: cell-based; conditions: m.o.i. 10, addition from -2 h to 6 hpi
[10] = H1N1, infected MDCK cells, m.o.i. 0.01, 48 h, 50% cell protection, read-out: IC50
[11] = human cancer cell line, MTT, 72 h, two concentrations 50–100 µM
[12] = human healthy cells, MTT, 72 h, two concentrations 50–100 µM

| Compound | CC50 (MDCK cells) | IC50 [1, 10] | IC50 (HEK-293) | IC50 (HT-29) | IC50 (SK-MEL-28) | IC50 (HCT116) | IC50 (SKBR3) | IC50 (A549 [5]) | CC50 at 48 h (in vitro) | IC50 (MCF7) | IC50 (DU145 [6]) | IC50 (A549 [3]) | IC50 at 72 h [7] | IC50 (DU145 [4]) | IC50 at 72 h [8] | also measured |
| --- | --- | --- | --- | --- | --- | --- | --- | --- | --- | --- | --- | --- | --- | --- | --- | --- |
| NC12CC3CC(CC(C3)C1)C2 [Amantadine, reference compound] | 284 ± 21 µM | 64 ± 5 µM |  |  |  |  |  |  |  |  |  |  |  |  |  |  |
| COc1ccc(C2=NO[C@]3(CC/C=C(\C)CC[C@@H]4[C@@H]3CC4(C)C)C2)cc1 [Compound 17a, (1S,2R,9R,E)-3′-(4-Methoxyphenyl)-6,10,10-trimethyl-4′H-spiro[bicyclo [7.2.0]undecane-2,5′-isoxazol]-5-ene] |  | 8.03 ± 1.1 µM | 44.3 ± 4.1 µM | 47.1 ± 3 µM | 38.9 ± 3.9 µM | 39.4 ± 2.8 µM | 36.5 ± 3.2 µM | 30.7 ± 2.1 µM | 37 ± 2.2 µM | > 50 µM | 42.6 ± 3.4 µM |  |  |  |  | toxicity to all cells [2]: extremely toxic, killing all cells within 48 h; cytotoxicity A549 (A549 [3]; [11]): + *; cytotoxicity HEK293 (HEK293; [12]): + *; cytotoxicity DU145 (DU145 [4]; [11]): + *; cytotoxicity EMT6 (EMT6): + *; cytotoxicity VA-13 (VA-13; [12]): + * |
| C=C1CC[C@@H]2C(c3ccc(OC)cc3)=NO[C@@]2(C)CC[C@@H]2[C@@H]1CC2(C)C [Compound 17b, (3aR,6aS,8aR,10aS)-3-(4-methoxyphenyl)-8,8,10a-trimethyl-6-methylene-3a,5,6,6a,7,8,8a,9,10,10a-decahydro-4H-cyclobuta [5,6]cyclonona [1,2-d]isoxazole] |  | > 12.8 µM |  |  |  |  |  |  | 27 ± 2.4 µM |  |  | < 50 µM | < 50 µM | < 50 µM | < 50 µM | IC50 [2]: < 50 µM |
| C=C1CC[C@H]2C(c3ccccc3)=NN(c3ccccc3)[C@]2(C)CC[C@@H]2[C@@H]1CC2(C)C [Compound 22b, (3aR,6aS,8aR,10aR)-8,8,10a-trimethyl-6-methylene-1,3-diphenyl-1,3a,4,5,6,6a,7,8,8a,9,10,10a-dodecahydrocyclobuta [6,7]cyclonona [1,2-c]pyrazole] |  | > 9.28 µM |  |  |  |  |  |  | 25.1 ± 1.6 µM |  |  | > 50 µM | < 50 µM | > 50 µM | < 50 µM | IC50 (HEK293): 50 to 100 µM; IC50 (VA-13): 50 to 100 µM |
| COc1cccc(OC)c1C1=NN(c2c(Cl)cc(Cl)cc2Cl)[C@]2(CC/C=C(\C)CC[C@@H]3[C@@H]2CC3(C)C)C1 [Compound 23a, (1S,2R,9R,E)-5′-(2,6-Dimethoxyphenyl)-6,10,10-trimethyl-2′-(2,4,6-trichlorophenyl)-2′,4′-dihydrospiro[bicyclo [7.2.0]undecane-2,3′-pyrazol]-5-ene] |  | > 5.59 µM | 39.2 ± 3 µM | 45 ± 1.9 µM | > 50 µM | > 50 µM | > 50 µM | 33.4 ± 2.2 µM | 10.2 ± 0.8 µM | > 50 µM | 28.8 ± 1.2 µM | < 50 µM | < 50 µM | < 50 µM | < 50 µM | IC50 [2]: < 50 µM; IC50 SK-MEL-28 (SK-MEL-28): did not show any cytotoxic effects; toxicity against EMT6 (EMT6; initial testing): extremely toxic; cytotoxicity EMT6 (EMT6): + *; IC50 HCT116 (HCT116): did not show any cytotoxic effects |
| CC1(C)C[C@H]2[C@H]1CC[C@]1(C)ON=C(c3ccc(Cl)cc3)[C@H]1CC[C@@]21CC(c2ccc(Cl)cc2)=NO1 [Compound 25, (3aR,6R,6aS,8aR,10aS)-3,3′-Bis(4-chlorophenyl)-8,8,10a-trimethyl-3a,4,5,6a,7,8,8a,9,10,10a-decahydro-4′H-spiro[cyclobuta [5,6]cyclonona [1,2-d]isoxazole-6,5′-isoxazole]] |  | 34.1 ± 4.4 µM | > 50 µM | > 50 µM | > 50 µM | > 50 µM | > 50 µM | > 50 µM | 426 ± 26.9 µM | > 50 µM | > 50 µM | 50 to 100 µM | > 50 µM | 50 to 100 µM | > 50 µM | IC50 SK-MEL-28 (SK-MEL-28): did not show any cytotoxic effects; toxicity to A549 (A549 [3]; initial testing): harmful; toxicity to DU145 (DU145 [4]; initial testing): harmful; IC50 HCT116 (HCT116): did not show any cytotoxic effects; latest time of addition with virus-inhibiting activity [9]: ≤ 6 hpi |
| CC1(C)C[C@H]2[C@H]1CC[C@@]1(C)ON=C(Br)[C@@H]1CC[C@@]21CC(Br)=NO1 [Compound 28, (3aR,6R,6aS,8aR,10aR)-3,3′-Dibromo-8,8,10a-trimethyl-3a,4,5,6a,7,8,8a,9,10,10a-decahydro-4′H-spiro[cyclobuta [5,6]cyclonona [1,2-d]isoxazole-6,5′-isoxazole]] |  | > 8.7 µM |  |  |  |  |  |  | 13.8 ± 1.2 µM |  |  | > 50 µM | 50 to 100 µM | > 50 µM | 50 to 100 µM | IC50 (HEK293): 50 to 100 µM; IC50 (VA-13): 50 to 100 µM |
| CC(N)C1C[C@@H]2CC[C@H]1C2 (stereo partly drawn) [Deitiforin, reference compound] | 1270 ± 82 µM |  |  |  |  |  |  |  |  |  |  |  |  |  |  |  |
| NC(=O)c1ncn([C@@H]2O[C@H](CO)[C@@H](O)[C@H]2O)n1 [Ribavirin, reference compound] | > 2000 µM | 25 µM |  |  |  |  |  |  |  |  |  |  |  |  |  |  |
| CC(N)C12CC3CC(CC(C3)C1)C2 (stereo not drawn) [Rimantadine, reference compound] | 335 ± 27 µM |  |  |  |  |  |  |  |  |  |  |  |  |  |  | IC50 ([1]; H1N1, MDCK, 48 h): 67 ± 4.9 µM |
